The text below walks through data of US4112228A, “7-(D-α-Hydroxy-2-arylacetamido)-3-(2-carboxyalkyl-2,3-dihydro-s-tri azolo-[4,3-b]pyridazin-3-on-6-ylthiomethyl)-3-cephem-4-carboxylic acids and derivatives” (priority 1977, dated 1978).

One data set concerns Kl. pneumoniae. In words: MIC by Steers' agar dilution method. It counts as cell-based. Particulars: Klebsiella pneumoniae, MHA, Example 10.
Another data set deals with Serr. marcescens. In words: MIC by Steers' agar dilution method. Particulars: Serratia marcescens, MHA; Example 10.
A further data set concerns Pr. mirabilis. Briefly: MIC by Steers' agar dilution method. Particulars: Proteus mirabilis, MHA, Example 10. Background: Agar dilution tests growth on a series of plates holding different concentrations.
The next data set concerns S. aureus. In words: MIC by Steers' agar dilution method. Type of data set: cell-based. Particulars: Staphylococcus aureus, MHA, Example 10.
Another data set has as its system Sal. typhosa. In words: MIC by Steers' agar dilution method. Type of data set: cell-based. Particulars: MHA; Example 10.
The subject of the next data set is Shig. dysenteriae. In words: MIC by Steers' agar dilution method. Particulars: Shigella dysenteriae, MHA; Example 10.
The next data set relates to St. faecalis. In words: MIC by Steers' agar dilution method. Particulars: Enterococcus faecalis, MHA; Example 10.
The test system of the next data set is Pr. vulgaris. In words: MIC by Steers' agar dilution method. Particulars: Proteus vulgaris, MHA, Example 10.
For another data set, the system named is Pr. morganii. In words: MIC by Steers' agar dilution method. Particulars: Morganella morganii, MHA, Example 10.
For another data set, the system named is Ps. aeruginosa. Briefly: MIC by Steers' agar dilution method. As to conditions: Pseudomonas aeruginosa, MHA, Example 10.
The subject of a further data set is Enterob. cloacae. Briefly: MIC by Steers' agar dilution method. Particulars: MHA; Example 10.
A further data set has as its system Shig. flexneri. Briefly: MIC by Steers' agar dilution method. As to conditions: Shigella flexneri, MHA; Example 10. It counts as cell-based.
The next data set deals with E. coli. Briefly: MIC by Steers' agar dilution method. Type of data set: cell-based. Particulars: Escherichia coli, MHA, Example 10.
The subject of a further data set is Sal. enteritidis. Briefly: MIC by Steers' agar dilution method. As to conditions: Salmonella enterica, MHA, Example 10.
In the next data set the test system is Pr. rettgeri. Briefly: MIC by Steers' agar dilution method. As to conditions: Providencia rettgeri, MHA; Example 10.
For a further data set, the system named is Shig. sonnei. In words: MIC by Steers' agar dilution method. It counts as cell-based. As to conditions: Shigella sonnei, MHA; Example 10.
The test system of another data set is B. anthracis. Briefly: microbe, parasite or virus in culture. Type of data set: cell-based. Particulars: Bacillus anthracis, MHA; Example 10.
A short description of data set [1]: pH of aqueous solution of the salt. It counts as physicochemical.
A short description of data set [2]: Nephrotoxicity test in rabbits. As to conditions: comparative test.

≈ marks a conversion by molar mass, not a printed value. Read-outs that look alike come from different tables or passages of the source.

On to `O=C(O)CCn1nc2ccc(SCC3=C(C(=O)O)N4C(=O)C(NC(=O)[C@H](O)c5ccccc5)[C@H]4SC3)nn2c1=O` (single isomer, unassigned) [BB-S 527, 7-[D(-)-Mandelamido]-3-[2-(2-carboxyethyl)-2,3-dihydro-s-triazolo-[4,3-b]pyridazin-3-on-6-ylthiomethyl]-3-cephem-4-carboxylic acid], for which the MIC is 6.3 µg/mL (≈ 10.7 µM) with Kl. pneumoniae (strain not named (1st of 4)); 0.2 µg/mL (≈ 0.341 µM) in the data set with Kl. pneumoniae (strain not named (2nd of 4)); 0.8 µg/mL (≈ 1.36 µM) against Kl. pneumoniae (strain not named (3rd of 4)); 0.4 µg/mL (≈ 0.682 µM) with Kl. pneumoniae (strain not named (4th of 4)); more than 100 µg/mL against Serr. marcescens; 0.2 µg/mL (≈ 0.341 µM) with Pr. mirabilis (strain not given (1st of 2)). Further, the MIC in the data set on Pr. mirabilis (strain not named (2nd of 2)) came out at 0.1 µg/mL (≈ 0.17 µM); against S. aureus (BX-1633) it was 3.1 µg/mL (≈ 5.28 µM); against S. aureus (Smith), 1.6 µg/mL (≈ 2.73 µM); against S. aureus (strain not named), 0.4 µg/mL (≈ 0.682 µM); in the data set on Sal. typhosa it was 0.1 µg/mL (≈ 0.17 µM); in the data set with Shig. dysenteriae, 0.025 µg/mL (≈ 0.0426 µM). Moreover, the MIC is more than 100 µg/mL against St. faecalis; 0.1 µg/mL (≈ 0.17 µM) against Pr. vulgaris (strain not given (1st of 2)); 12.5 µg/mL (≈ 21.3 µM) in the data set on Pr. vulgaris (strain not named (2nd of 2)); more than 100 µg/mL with Pr. morganii (strain not given (1st of 2)); 0.4 µg/mL (≈ 0.682 µM) with Pr. morganii (strain not named (2nd of 2)); more than 100 µg/mL in the data set on Ps. aeruginosa (strain not given (1st of 2)). For the same compound, the MIC in the data set on Ps. aeruginosa (strain not named (2nd of 2)) was more than 100 µg/mL; in the data set with Enterob. cloacae it was 6.3 µg/mL (≈ 10.7 µM); in the data set on Shig. flexneri, 50 µg/mL (≈ 85.2 µM); with E. coli (ATCC8739, ATCC 8739), 12.5 µg/mL (≈ 21.3 µM); with E. coli (BX-1373, read-out: MIC), 6.3 µg/mL (≈ 10.7 µM); in the data set on E. coli (Juhl, read-out: MIC), 0.4 µg/mL (≈ 0.682 µM). For the same compound, the MIC in the data set on E. coli (NIHJ, read-out: MIC) was determined as 0.4 µg/mL (≈ 0.682 µM); with E. coli (strain not named (1st of 3), read-out: MIC) it was 0.1 µg/mL (≈ 0.17 µM); with E. coli (strain not named (2nd of 3), read-out: MIC) it was 0.1 µg/mL (≈ 0.17 µM); in the data set with E. coli (strain not named (3rd of 3), read-out: MIC) it was 6.3 µg/mL (≈ 10.7 µM); against Sal. enteritidis, 0.05 µg/mL (≈ 0.0852 µM); against Pr. rettgeri, 0.2 µg/mL (≈ 0.341 µM). For the same compound, the MIC against Shig. sonnei worked out at 0.1 µg/mL (≈ 0.17 µM); against B. anthracis, 0.4 µg/mL (≈ 0.682 µM).

For the compound `O=C(O)Cn1nc2ccc(SCC3=C(C(=O)O)N4C(=O)C(NC(=O)[C@H](O)c5ccccc5)C4SC3)nn2c1=O` (stereo partly drawn) [Example 6, disodium 7-(D-mandelamido)-3-(2-carboxymethyl-2,3-dihydro-s-triazolo[4,3-b]pyridazin-3-on-6-ylthiomethyl)-3-cephem-4-carboxylylate], the “pH of the aqueous solution” value in data set [1] (5% aqueous solution) was found to be 5.4.

Consider `O=C(O)Cn1nc2ccc(SCC3=C(C(=O)[O-])N4C(=O)C(NC(=O)[C@H](O)c5ccccc5)[C@H]4SC3)nn2c1=O.[Na+]` (stereo partly drawn) [Sodium Salt of BB-S488, sodium 7-(D-mandelamido)-3-(2-carboxymethyl-2,3-dihydro-s-triazolo[4,3-b]pyridazin-3-on-6-ylthiomethyl)-3-cephem-4-carboxylate], for which, in data set [1] (10% aqueous solution), the “pH of the aqueous solution” value is listed as 3.6.

For the compound `O=C(Cc1cccs1)N[C@@H]1C(=O)N2C(C(=O)[O-])=C(C[n+]3ccccc3)CS[C@H]12` [cephaloridine, reference compound], in data set [2], the Nephrotoxicity result is recorded as “severe nephrotoxicity”.
